Results published in PubChem BioAssay AID743394 (Broad Institute, 2014).
The source made the active and inactive calls.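 Rule for the calls: active = 40% activation versus positive control reached by fitted dose-response curve at or below highest valid tested dose; inconclusive = poor fit quality, or flat fit with activation between 30% and 70%; inactive = the rest.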

Test: Xi-linked GFP reactivating small molecules – imaging, 68-5-11 mouse fibroblasts, cherry-pick, dose response (AID 743394);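 note: sensitizer 5-aza-dC present in the wells at 0.5 mM final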
Conditions: 68-5-11 mouse fibroblast XiGFP reporter, % GFP-positive imaging, 3 d; at 19.5 µM (top of the series)
For O=[N+]([O-])c1ccc(O)c([N+](=O)[O-])c1, the activation was -0.014% (inactive).
In the case of C=CCn1c(O)c(C(C)=NCc2ccc3c(c2)OCO3)c(=O)[nH]c1=O, the activation is reported as 0.026% (inactive).
With C[n+]1c(-c2ccccc2)c2cc(N)ccc2c2ccc(N)cc21 the activation was 1.19% (inactive).

Same assay, conditions: 68-5-11 mouse fibroblast XiGFP reporter, % GFP-positive imaging, 3 d; at 19.5 µM (top of the series); cells co-treated with 5-aza-dC sensitizer; scaled: neutral wells 0, ellipticine wells 100
For O=c1[nH]cnc2c1ncn2[C@H]1CC[C@@H](CO)O1, the activation was -0.002% (inactive).
In the case of Cc1cc(C(=O)Nc2ccc(Cl)c(S(=O)(=O)N3CCOCC3)c2)c2ccccc2n1, the activation is reported as -0.053% (inactive).
With CCCNNC(=O)C(O)(c1ccccc1)c1ccccc1 the activation was -0.099% (inactive).
With Cc1ccc(OCCN2CCN(CC(O)Cn3c4ccccc4c4ccccc43)CC2)cc1 (centres undefined) the activation was 5.68% (inactive).
With CCOC(=O)c1cnc(-c2ccc(C(F)(F)F)cn2)[nH]c1=O the activation was -0.017% (inactive).
In the case of CN(C)/C=C1\C=C2C(=O)c3ccccc3N2C1=O, the activation is reported as 4.14% (inactive).
For CCOC(=O)c1ccc(NC(=O)C2(N3C(=O)c4ccccc4C3=O)CCCC2)cc1, the activation was 0.082% (inactive).
In the case of CCC(C)c1nc2ccsc2c(N2CCOC2=O)c1-c1ccccc1 (centres undefined), the activation is reported as -0.032% (inactive).
In the case of CC(C)c1ccc(CN2CCN(C(=O)CSc3nnnn3C3CC3)CC2)cc1, the activation is reported as 0.2% (inactive).
For C[C@@H]1CN(C)C(=O)Cc2cc(N(C)C)ccc2O[C@@H]1CN(C)S(C)(=O)=O, the activation was 0.115% (inactive).
In the case of COCCN(C(=S)Nc1cccc(C)c1)C(C)c1cccnc1 (centres undefined), the activation is reported as 0.005% (inactive).
With O=C(c1ccc(S(=O)(=O)c2ccc(Cl)cc2)cc1)N1CCOCC1 the activation was 0.117% (inactive).
For COc1cccc(CNC(=O)c2ccc(NC(=O)CC3SC(N4CCCC4)=NC3=O)cc2)c1 (centres undefined), the activation was 0.01% (inactive).
With COc1ccc(C)c(-n2c(=O)n(Cc3ccccc3)c(=O)c3[nH]cnc32)c1 the activation was -0.006% (inactive).
In the case of COc1ccc(Cc2c(O)nc(SCC(=O)NC34CC5CC(CC(C5)C3)C4)[nH]c2=O)cc1, the activation is reported as 0.41% (inactive).
In the case of O=C(N/N=C/c1ccc2cccnc2c1)c1nc2ccccc2c(=O)[nH]1, the activation is reported as 0.014% (inactive).
With CCOC(=O)C1(Cc2ccccc2C)CCCN(C(=O)CSC)C1 (centres undefined) the activation was -0.053% (inactive).
In the case of C[C@@H]1CN([C@@H](C)CO)C(=O)c2cc(NS(C)(=O)=O)ccc2O[C@@H](C)CCCCO[C@@H]1CN(C)Cc1ccccc1, the activation is reported as 0.016% (inactive).
In the case of CC(Sc1nnc(-c2ccncc2)n1C)C(=O)Nc1ccc(N2CCOCC2)cc1 (centres undefined), the activation is reported as -0.047% (inactive).
In the case of COc1ccccc1CNC(=O)COC(=O)COc1ccccc1F, the activation is reported as 0.549% (inactive).
For CN(C)CC(=O)N1CC2(C1)[C@@H](c1ccccc1)[C@H](CO)N2C(=O)C1CC1, the activation was -0.015% (inactive).
In the case of CC(=O)C1=NN(c2ccc(Cl)cc2)C(c2ccc3c(c2)OCO3)N(C(C)=O)N1C (centres undefined), the activation is reported as -0.032% (inactive).
For CC(=NNc1ccc2ccccc2n1)c1ccccn1, the activation was 1.93% (inactive).
For Cc1nnc(-c2ccc(N3CCCCCC3)c([N+](=O)[O-])c2)o1, the activation was -0.007% (inactive).
In the case of COc1cc(/C=C/C(=O)c2ccc3c(c2)OCCO3)cc(Br)c1OCC(=O)N(C)C, the activation is reported as -0.06% (inactive).
With Cc1c(Nc2cc(Cl)c3nonc3c2[N+](=O)[O-])c(=O)n(-c2ccccc2)n1C the activation was -0.121% (inactive).
With O=C(Nc1c(F)cccc1F)C(c1ccccc1)c1ccccc1 the activation was 0.013% (inactive).
In the case of C=CCNC(=O)N[C@@H](Cc1ccccc1)C(=O)OC, the activation is reported as -0.065% (inactive).
In the case of O=c1[nH]c(=O)n([C@H]2C[C@H](O)[C@@H](CO)O2)cc1C(F)(F)F, the activation is reported as -0.032% (inactive).
For COc1ccccc1C#Cc1ccc2c(c1)O[C@H](CN(C)Cc1cncnc1)[C@@H](C)CN([C@H](C)CO)S2(=O)=O, the activation was 0.045% (inactive).
In the case of CC(=O)OCCNc1cc(Sc2nc3ccccc3[nH]2)c2nonc2c1[N+](=O)[O-], the activation is reported as -0.034% (inactive).
With CCN(CC(=O)Nc1sc2c(c1C#N)CCCC2)CC(=O)NC1CCS(=O)(=O)C1 (centres undefined) the activation was -0.032% (inactive).
With CC(=O)c1c(COC(=O)c2ccccc2Cl)nc2ccccc2[n+]1[O-] the activation was 0.188% (inactive).
In the case of COc1ccc(S(=O)(=O)N(C)C[C@H]2OCCCC[C@@H](C)Oc3ccc(NC(=O)NC(C)C)cc3C(=O)N([C@@H](C)CO)C[C@H]2C)cc1, the activation is reported as -0.013% (inactive).
With CC1CCN(C(=O)Cn2nnc(-c3ccccc3)n2)CC1 the activation was 0.315% (inactive).
For Cc1n[nH]c(=S)n(/N=C/c2cccc([N+](=O)[O-])c2)c1=O, the activation was -0.091% (inactive).
With COc1cc(/C=C2\SC(=S)N(N3CCOCC3)C2=O)cc(OC)c1OC the activation was 0.067% (inactive).
For COc1ccc(/C=c2/sc3nc(-c4ccccc4)c(-c4ccccc4)n3c2=O)cc1, the activation was -0.002% (inactive).
For CCN1CCN(c2cc3nc(C)n(Cc4ccccc4)c(=O)c3cc2NC(=O)c2ccccc2F)CC1, the activation was -0.127% (inactive).
For C[C@@H]1CN([C@@H](C)CO)C(=O)c2cc(NS(=O)(=O)c3ccccc3)ccc2O[C@@H](C)CCCCO[C@@H]1CN(C)Cc1ccc2c(c1)OCO2, the activation was 0% (inactive).
For COc1ccccc1-c1cc(C(=O)N2CCCc3ccccc32)no1, the activation was 0.179% (inactive).
For CC(O)(c1ccccc1)c1nc(-c2ccncc2)cs1 (centres undefined), the activation was 0.105% (inactive).
In the case of Oc1ccc(Br)cc1C=Nc1ccc2c3c(cccc13)CC2, the activation is reported as 0.056% (inactive).
With Nc1[nH]c(=O)nc(Nc2ccccc2)c1N=O the activation was -0.037% (inactive).
For CCc1nc(C)cn1S(=O)(=O)c1ccc([N+](=O)[O-])cc1, the activation was -0.053% (inactive).
For C=C(C)c1cccc(C(C)(C)NC(=O)Nc2nnc(C(C)C)s2)c1, the activation was -0.035% (inactive).
For CC(C)C#Cc1ccc([C@@H]2[C@@H](CO)N3C(=O)CN(C(=O)c4ccc5c(c4)OCO5)C[C@H]23)cc1, the activation was 0.09% (inactive).
With O=C(CSc1nc2ccccc2[nH]1)N/N=C/C=C/c1ccccc1[N+](=O)[O-] the activation was 0.165% (inactive).
For Cc1nn(-c2ccccc2)c(N)c1N=O, the activation was -0.053% (inactive).
For CNc1ncnc(Sc2ccc(Cl)cc2)c1[N+](=O)[O-], the activation was 0.297% (inactive).
With C[C@@H]1CCCCO[C@@H](CN(C)C(=O)Nc2ccc(C(F)(F)F)cc2)[C@@H](C)CN([C@H](C)CO)C(=O)c2cc(NS(=O)(=O)c3ccc(F)cc3)ccc2O1 the activation was -0.031% (inactive).
With CN(Cc1nc(CCc2ccccc2)no1)Cc1cccs1 the activation was -0.037% (inactive).
With COC(C(=O)NCc1ccc(C)cc1)c1ccccc1 (centres undefined) the activation was 0.114% (inactive).
For CCN(CC)c1ccc(N=Cc2ccc([N+](=O)[O-])o2)cc1, the activation was 0.626% (inactive).
With CCOC(=O)c1sc2nc(CSc3ccccc3)[nH]c(=O)c2c1C the activation was 0.303% (inactive).
With COc1ccc(/C=C\c2onc(C)c2S(=O)(=O)N2CCC(C(=O)NCc3ccco3)CC2)cc1 the activation was 0.355% (inactive).
With COc1ccc(-c2ccc(C(=O)NCc3cccs3)c3occc23)c(C)c1 the activation was -0.032% (inactive).
With Cc1cc(=O)[nH]c(N/N=C/c2cc(C)n(-c3ccccc3)c2C)n1 the activation was -0.016% (inactive).
In the case of COc1ccc(NC(=O)COc2ccc(C)c(C)c2)cc1S(=O)(=O)N1CCCCC1, the activation is reported as 0.164% (inactive).
For CCOc1ccc(C(Nc2cccnc2)c2cc(Cl)c3cccnc3c2O)cc1 (centres undefined), the activation was 8.68% (inactive).

Same assay, conditions: 68-5-11 mouse fibroblast XiGFP reporter, % GFP-positive imaging, 3 d; at 21 µM (top of the series); cells co-treated with 5-aza-dC sensitizer; scaled: neutral wells 0, ellipticine wells 100
In the case of Cc1cccc(CN(C)C[C@@H]2Oc3ncc(C#Cc4ccccc4)cc3C(=O)N([C@H](C)CO)C[C@@H]2C)c1, the activation is reported as -0.035% (inactive).
